For one compound, EC50 results are on record in patent US9499554B2, “Anti-influenza compositions and methods” (priority 2013, dated 2016).

What is called EC50 is the concentration giving half of the maximal effect.

Structures are written as SMILES. Values after ≈ are worked out from the molar mass of the structure shown. Where two headings read alike, the source gives them in different places.

Experiment [1] concerns Influenza A H5N1 VN/1203/2004 Hybrid (on H1N1 backbone). Nature of the experiment: microbe, parasite or virus in culture. As to conditions: Influenza A virus, read-out: EC50, Visual CPE Assay. The experiment is classed as cell-based.
For experiment [2] the test system is unchanged. Nature of the experiment: microbe, parasite or virus in culture. Format: cell-based. As to conditions: Influenza A virus.

As for `Nc1ncnc2c([C@@H]3N[C@H](CO)[C@@H](O)[C@H]3O)c[nH]c12` [compound 1, (2S,3S,4R,5R)-2-(4-Amino-5H-pyrrolo[3,2-d]pyrimidin-7-yl)-5-(hydroxymethyl)pyrrolidine-3,4-diol], the EC50 in experiment [1] was determined as 0.63 µg/mL (≈ 2.37 µM); in experiment [2] (MDCK, read-out: EC50, antiviral activity in MDCK cells), 0.99 µg/mL (≈ 3.73 µM); in experiment [2] (read-out: EC50, Neutral Red Uptake Assay) it was 0.99 µg/mL (≈ 3.73 µM).
